For one data set, the system named is MART-1 specific CTLs. Description: Priming of MART-1 specific CTLs by PME-CD40L DCs in the presence of mTOR inhibitors. In kind it is cell-based, human. The note with it: in the presence of the mTOR inhibitor, 10 ng/ml to 1 ug/ml. On the procedure: 300 x 10^6 peripheral blood mononuclear cells (PBMCs) were cultured in 30 mL AIM-V media (Thermo Fisher Scientific) in T150 flasks (Corning) for 2 hours to provide for the adherence of monocytes. Non-adherent cells were removed by washing the monolayers twice with cold phosphate buffered saline (PBS) (Cambrex), and the remaining monocytes were cultured in X-VIVO 15 medium (Cambrex) for 5 days, supplemented with 1000 U/mL each of granulocyte macrophage-colony stimulating factor (GM-CSF) (Bayer AG, Leukine® liquid) and IL-4 (R&D Systems). To achieve DC maturation, immature DCs were first cultured on day 5 with 10 ng/mL tumor necrosis factor alpha (TNF-α) (R&D Systems), 1000 µ/mL interferon gamma (IFN-y) (Actimmune), and 1 µg/mL prostaglandin E2 (PGE2) (Sigma). On day 6, phenotypically mature DCs were co-electroporated with RNA encoding CD40L (Argos Lot No. 101606 JSC) at a concentration of 3 ug per million DCs plus either human cytomegalovirus (CMV) pp65 or MART-1 encoding RNAs at 2 µg per million DCs (CMVpp65 RNA-Argos Lot No 071107XF, MART-1-APL RNA-Argos Lot No. 011909HC). […]
PME-CD40L DCs derived from HLA-A2-positive donors and transfected with antigen-encoding mRNAs were co-cultured with purified CD8^+ T cells. […] Induction of primary immune responses to MART-1 and memory/recall responses to CMV pp65 were measured on day 10. […]

Data set [1] concerns healthy donor PBMC T cells. Kind of data set: Healthy donor PBMCs stimulated with autologous PME-CD40L-CMV DCs with mRCC patient plasma with or without everolimus. It counts as cell-based, human. On the procedure: PBMCs and DCs were thawed and washed in PBS (Lonza) prior to counting. Post maturation electroporated monocyte-derived dendritic cells (PME-CD40L) were generated from healthy donors as described in DeBenedette MA. et al., J Immunol. 181(8):5296-5305 (2008) (incorporated herein by reference in its entirety), and were co-electroporated with RNA encoding the pp65 CMV protein and RNA encoding CD40L. Viable cell counts were performed using BD TruCount Absolute Counting Tubes and propidium iodide (BD Biosciences) by flow cytometry. PBMCs and DCs were re-suspended in X-Vivo15 (with gentamicin and phenol red) (Lonza) containing 10% normal human AB serum (Valley biomedical). […] Frozen PBMC vials from 2 HLA-mismatched healthy donors were thawed and counted. […] Purified Mouse anti-human CD3 (clone OKT3, BD Biosciences) was used to stimulate healthy donor PBMCs in culture.
HLA-mismatched healthy donor PBMCs were mixed and cultured for 7 days in the presence of 2% mRCC patient plasma and with or without 20 ng of everolimus added on day 0, and the frequency of CD28^+ memory T cells was determined. […] To expand the understating whereby everolimus can reduce the immune suppressive impact of mRCC, patient plasma PBMCs were stimulated with autologous DCs presenting the pp65 CMV antigen. Healthy donor PBMCs and autologous DCs were mixed and cultured for 6 days in the presence of 2% mRCC patient plasma and with or without 20 ng of everolimus added on day 0.
Furthermore, the impact of everolimus on the suppressive effect of mRCC patient plasma when PBMCs were stimulated with autologous DCs was examined.
To understand the ability of everolimus to restore the frequency of CD25^+CD28^+ T cells, the expression of both CD25 and CD28 on CD8 T cells stimulated in the MLR or with autologous DCs in the presence of mRCC patient plasma was measured by the geometric mean fluorescence intensity (MFI).

For data set [2] the following is noted: than rapamycin (sirolimus); cited from earlier work.
Where [3] appears, read: autologous DCs 6 days, 2% mRCC patient plasma, 20 ng everolimus.
Setting [4] is: autologous DCs, mRCC patient plasma, everolimus, statistically significant.

SMILES strings stand for the structures.

Consider `CO[C@H]1C[C@@H]2CC[C@@H](C)[C@@](O)(O2)C(=O)C(=O)N2CCCC[C@H]2C(=O)O[C@H]([C@H](C)C[C@@H]2CC[C@@H](OCCO)[C@H](OC)C2)CC(=O)[C@H](C)/C=C(\C)[C@@H](O)[C@@H](OC)C(=O)[C@H](C)C[C@H](C)/C=C/C=C/C=C/1C` [everolimus], for which the “priming of MART-1 specific CTLs by PME-CD40L DC” value with MART-1 specific CTLs was “able to prime”. For the same compound, in data set [1] (setting [3]), the “expression of CD25 on CD8 T cells (MFI)” value was “statistically significant increase”, the “expression of CD28 on CD8 T cells (MFI)” value is given as “statistically significant increase” and the “frequency of proliferating CD28- CD4 T cells” value is given as “little impact”. Further, in data set [1] (autologous DCs 6 days, 2% mRCC patient plasma, 20 ng everolimus on day 0, not statistically significant (p<0.283)), the “frequency of proliferating CD28+ CD4 T cells suppressed by mRCC patient plasma” value was “partially restored”. In data set [1] (autologous DCs 6 days, 2% mRCC patient plasma, 20 ng everolimus, p< 0.0002), the “plasma mediated suppression of proliferating CD28+ CD8 T cells” value is reported as “partially reversed”. Also, in data set [1] (autologous DCs 6 days, 2% mRCC patient plasma, 20 ng everolimus, p<0.92), the “frequency of proliferating CD28- CD8 T cells” value is reported as “minimal ability to decrease”. Moreover, the “frequency of CD25+CD28+ CD4 T cells” value in data set [1] (autologous DCs, mRCC patient plasma, everolimus, did not reach statistical significance) is “partially restored”. Further, in data set [1] (setting [4]), the “frequency of CD25+CD28+ CD8 T cells” value was “partially restore” and the “frequency of CD25+CD28- CD8 T cells” value is recorded as “partially restore”. The pharmokinetics entry in data set [2] is given as “more favorable”.

Values taken from patent publication US20230061319A1, “METHODS OF TREATING TUMORS” (CoImmune, Inc., priority 2020, published 2023).
